Structures can show the parent of a compound that is named as a salt.
target: T1, histamine-3 (H3) receptor (Homo sapiens, UniProt Q9Y5N1); experiment: Methyl Histamine Binding in Human Histamine-3 Receptor Cell Line; settings: membranes of stably transfected HEK293T cells, radioligand 1 nM, Ki from IC50 by Cheng-Prusoff
T1 construct: expressed in transfected cells; host or cells: HEK293T
Protocol: Evaluation of Methyl Histamine Binding in Human Histamine-3 Receptor Cell Line
The affinity of test compounds for the histamine-3 (H3) receptor is evaluated in the following manner. Stably transfected HEK293T cells are grown in DMEM containing 10% heat inactivated FBS and G-418 (500 ug/ml). Cells are scraped from the plate, transferred to centrifuge tubes, washed one time in PBS by centrifugation in a Sorvall RT7 Plus centrifuge (2000 rpm 10 minutes, 4° C.). The resulting pellets are stored at 80° C. until ready for use. Cells are re-suspended in buffer (50 mM Tris pH=7.5) and placed in a Dounce homogenizer, douncing ten times to homogenize cells. The homogenate is spun down by centrifugation (Sorvall RT7 Plus, 1800 rpm 10 minutes, 4° C.). The supernatant is placed in a Corex tube and spun down by centrifugation (Sorvall RC 5c Plus, 17,000 rpm 20 minutes, 4° C.). The pellet is resuspended in buffer (50 mM Tris, pH 7.5). Protein concentration (ug/ul) is determined using the Micro-BCA Protein Determination. The binding assay is set up in a 96 well microtiter plate in a total volume of 250 uL. Non-specific binding is determined in the presence of 10 uM clobenpropit. The final radioligand concentration is 1 nM. The test compound is serially diluted using the Beckman Biomek2000 to a final approximate range of 100 uM to 100 pM. Membranes are suspended in buffer, homogenized in 2 bursts of ten seconds using a Vitris mechanical homogenizer set at power setting 5. Ten μg of membranes are added to each well. Following a one hour incubation at 30° C., the reaction is terminated by the addition of ice cold buffer and rapid filtration with a Packard Filtermate Harvester through a GF/B filter pre-soaked with 1% PEI for one hour. The plate is dried for one hour at 37° C. and 60 μL Microscint Scintillant is added to each well. The CPM per well is measured on a Packard Top Count NXT. Ki values are determined in nM. The Ki is calculated from the IC50 (i.e. the concentration of competing ligand which displaces 50% of the specific binding of the radioligand). CPM values are expressed as % specific binding and plotted vs compound concentration. A curve is fitted using a four-parameter logistic fit and the IC50 value is determined. The Ki is calculated from this using the Cheng-Prusoff equation: […]=IC50/1+(L/Kd) where L=concentration of free radioligand used in the assay, and Kd is the dissociation constant of the radioligand for the receptor. L is determined for each experiment by counting an aliquot of the diluted radioligand (corresponding to that added to each well) and the Kd has previously been determined under identical conditions for this cell line/radioligand.

T1 sequence (Q9Y5N1 whole entry): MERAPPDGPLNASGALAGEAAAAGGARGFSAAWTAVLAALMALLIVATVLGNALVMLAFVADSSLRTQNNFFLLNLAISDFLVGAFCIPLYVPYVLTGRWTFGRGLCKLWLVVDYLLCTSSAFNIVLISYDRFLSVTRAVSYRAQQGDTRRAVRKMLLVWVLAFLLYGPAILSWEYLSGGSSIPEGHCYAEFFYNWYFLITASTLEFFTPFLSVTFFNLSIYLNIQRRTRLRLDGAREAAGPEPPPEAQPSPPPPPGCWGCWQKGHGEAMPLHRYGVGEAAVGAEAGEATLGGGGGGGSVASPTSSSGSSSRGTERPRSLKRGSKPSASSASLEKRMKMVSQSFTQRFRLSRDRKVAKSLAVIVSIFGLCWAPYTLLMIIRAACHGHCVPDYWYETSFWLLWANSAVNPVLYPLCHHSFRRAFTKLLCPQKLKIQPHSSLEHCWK

Ki [µM]	SMILES
> 0.1	Cn1c(CN2CCCC2)cnc1-c1ccc(-c2ccccc2)cc1 [Example 146, 2-Biphenyl-4-yl-1-methyl-5-pyrrolidin-1-ylmethyl-1H-imidazole fumarate salt]
> 0.1	Cn1c(CN2CCCC2)cnc1-c1ccc(C#N)cc1 [Example 144, 4-(1-Methyl-5-pyrrolidin-1-ylmethyl-1H-imidazol-2-yl)-benzonitrile fumarate salt]
≤ 0.01	FC(F)(F)c1nc2ccccc2n1Cc1ccc(-c2nc(CN3CCCC3)co2)cc1 [Example 114]
> 0.1	Cn1c(CN2CCCC2)cnc1-c1ccc(F)cc1 [Example 145, 2-(4-Fluoro-phenyl)-1-methyl-5-pyrrolidin-1-ylmethyl-1H-imidazole fumarate salt]
0.0101 to 0.025	C[C@@H]1CCCN1Cc1coc(-c2ccc(Cn3c(C(F)(F)F)nc4ccccc43)cc2)n1 [Example 116, 1-[4-(4-{[(2R)-2-methylpyrrolidin-1-yl]methyl}-1,3-oxazol-2-yl)benzyl]-2-(trifluoromethyl)-1H-benzimidazole]
> 0.1	Cn1c(CN2CCCC2)cnc1-c1ccccc1 [Example 143, 1-Methyl-2-phenyl-5-pyrrolidin-1-ylmethyl-1H-imidazole fumarate salt]
0.0501 to 0.1	c1ccc2c(c1)cnn2Cc1ccc(-c2nc(CN3CCCC3)co2)cc1 [Example 88, 1-{4-[4-(pyrrolidin-1-ylmethyl)-1,3-oxazol-2-yl]benzyl}-1H-indazole]
> 0.1	c1ccc2c(c1)ncn2Cc1ccc(-c2ncc(CN3CCCC3)o2)cc1 [Example 104, 1-{4-[5-(pyrrolidin-1-ylmethyl)-1,3-oxazol-2-yl]benzyl}-1H-benzimidazole]
0.0101 to 0.025	C[C@H]1CCCN1Cc1coc(-c2ccc(Cn3ncc4ccc(F)cc43)cc2)n1 [Example 99, 6-fluoro-1-[4-(4-{[(2S)-2-methylpyrrolidin-1-yl]methyl}-1,3-oxazol-2-yl)benzyl]-1H-indazole]
0.0501 to 0.1	Cn1c(CN2CCCC2)cnc1-c1ccc(Cn2cnc3ccccc32)cc1 [Example 139, 1-[4-(1-Methyl-5-pyrrolidin-1-ylmethyl-1H-imidazol-2-yl)-benzyl]-1H-benzoimidazole fumarate salt]
≤ 0.01	Cn1c(Cc2ccc(-c3nc(CN4CCCC4)co3)cc2)nc2ccccc21 [Example 67, 1-Methyl-2-{4-[4-(pyrrolidin-1-ylmethyl)-1,3-oxazol-2-yl]benzyl}-1H-benzimidazole Fumarate]
0.0101 to 0.025	FC(F)(F)c1nc2ccccc2n1Cc1ccc(-c2nc(CN3CCCCC3)co2)cc1 [Example 122, 1-{4-[4-(piperidin-1-ylmethyl)-1,3-oxazol-2-yl]benzyl}-2-(trifluoromethyl)-1H-benzimidazole]
≤ 0.01	Cn1c(CN2CCCC2)cnc1-c1ccc(-n2cnc3ccccc32)cc1 [Example 151, 1-[4-(1-Methyl-5-pyrrolidin-1-ylmethyl-1H-imidazol-2-yl)-phenyl]-1H-benzoimidazole fumarate salt]
≤ 0.01	C[C@H]1CCCN1Cc1cnc(-c2ccc(Cn3cnc4ccccc43)cc2)o1 [Example 106, 1-[4-(5-{[(2S)-2-methylpyrrolidin-1-yl]methyl}-1,3-oxazol-2-yl)benzyl]-1H-benzimidazole]

The next lines start with the molecule.

SMILES	Ki [µM]
F[C@@H]1CCN(Cc2coc(-c3ccc(Cn4cnc5ccccc54)cc3)n2)C1 [Example 21, 1-[4-(4-{[(3R)-3-fluoropyrrolidin-1-yl]methyl}-1,3-oxazol-2-yl)benzyl]-1H-benzimidazole]	0.0101 to 0.025
CC1CCCN1Cc1coc(-c2ccc(Cn3cnc4ccccc43)cc2)n1 (stereo not shown) [Example 13, 1-(4-{4-[(2-methylpyrrolidin-1-yl)methyl]-1,3-oxazol-2-yl}benzyl)-1H-benzimidazole]	≤ 0.01
CN(C)Cc1coc(-c2ccc(Cn3cnc4ccccc43)cc2)n1 [Example 8]	0.0101 to 0.025
C[C@H]1CCCN1Cc1coc(-c2ccc(-c3nc4ccccc4n3CC3CCC3)cc2)n1 [Example 59, 1-(cyclobutylmethyl)-2-[4-(4-{[(2S)-2-methylpyrrolidin-1-yl]methyl}-1,3-oxazol-2-yl)phenyl]-1H-benzimidazole]	≤ 0.01
c1ccc2c(c1)ncn2Cc1ccc(-c2nc(CN3CCOCC3)co2)cc1 [Example 10, 1-{4-[4-(morpholin-4-ylmethyl)-1,3-oxazol-2-yl]benzyl}-1H-benzimidazole]	> 0.1
CN(C)Cc1coc(-c2ccc(-c3nc4ccccc4n3C)cc2)n1 [Example 54, N,N-dimethyl-1-{2-[4-(1-methyl-1H-benzimidazol-2-yl)phenyl]-1,3-oxazol-4-yl}methanamine]	0.0101 to 0.025
CC1CCCN(Cc2coc(-c3ccc(Cn4cnc5ccccc54)cc3)n2)C1 (stereo not shown) [Example 16]	≤ 0.01
CC1CCN(Cc2coc(-c3ccc(-n4cnc5ccccc54)cc3)n2)CC1 [Example 47, 1-(4-{4-[(4-methylpiperidin-1-yl)methyl]-1,3-oxazol-2-yl}phenyl)-1H-benzimidazole]	≤ 0.01
CCN(CC)Cc1coc(-c2ccc(Cn3cnc4ccccc43)cc2)n1 [Example 12, N-({2-[4-(1H-benzimidazol-1-ylmethyl)phenyl]-1,3-oxazol-4-yl}methyl)-N-ethylethanamine]	≤ 0.01
c1ccc2c(c1)ncn2Cc1ccc(-c2nc(CN3CCCCCC3)co2)cc1 [Example 14, 1-{4-[4-(azepan-1-ylmethyl)-1,3-oxazol-2-yl]benzyl}-1H-benzimidazole]	≤ 0.01
C[C@H]1CCCN1Cc1coc(-c2ccc(Cn3cnc4ccccc43)cc2)n1 [Example 20, 1-[4-(4-{[(2S)-2-methylpyrrolidin-1-yl]methyl}-1,3-oxazol-2-yl)benzyl]-1H-benzimidazole]	≤ 0.01
F[C@H]1CCN(Cc2coc(-c3ccc(Cn4cnc5ccccc54)cc3)n2)C1 [Example 22, 1-[4-(4-{[(3S)-3-fluoropyrrolidin-1-yl]methyl}-1,3-oxazol-2-yl)benzyl]-1H-benzimidazole]	0.0101 to 0.025
Brc1oc(-c2ccc(Cn3cnc4ccccc43)cc2)nc1CN1CCCC1 [Example 29, 1-{4-[5-bromo-4-(pyrrolidin-1-ylmethyl)-1,3-oxazol-2-yl]benzyl}-1H-benzimidazole]	0.0251 to 0.05
c1ccc2c(c1)ncn2-c1ccc(-c2nc(CN3CCOCC3)co2)cc1 [Example 40]	> 0.1
CC1CCN(Cc2coc(-c3ccc(Cn4cnc5ccccc54)cc3)n2)CC1 [Example 17]	≤ 0.01
CN1CCN(Cc2coc(-c3ccc(Cn4cnc5ccccc54)cc3)n2)CC1 [Example 11]	> 0.1
c1ccc2c(c1)nc(-c1ccc(-c3nc(CN4CCCC4)co3)cc1)n2CC1CCC1 [Example 58, 1-(cyclobutylmethyl)-2-{4-[4-(pyrrolidin-1-ylmethyl)-1,3-oxazol-2-yl]phenyl}-1H-benzimidazole]	0.0101 to 0.025
c1ccc2c(c1)ncn2Cc1ccc(-c2nc(CN3CCCC3)co2)cc1 [Example 6B, 1-{4-[4-(Pyrrolidin-1-ylmethyl)-1,3-oxazol-2-yl]benzyl}-1H-benzimidazole Hydrochloride]	≤ 0.01
CN1CCN(Cc2coc(-c3ccc(-n4cnc5ccccc54)cc3)n2)CC1 [Example 41, 1-(4-{4-[(4-methylpiperazin-1-yl)methyl]-1,3-oxazol-2-yl}phenyl)-1H-benzimidazole]	> 0.1
CCN(CC)Cc1coc(-c2ccc(-n3cnc4ccccc43)cc2)n1 [Example 42, N-({2-[4-(1H-benzimidazol-1-yl)phenyl]-1,3-oxazol-4-yl}methyl)-N-ethylethanamine]	0.0251 to 0.05
